ChEMBL document CHEMBL1130639, “Synthesis of anti-rheumatic agent epoxyquinomicin B” (Bioorg Med Chem Lett, 1998)

Test: Lethal dose upon intraperitoneal administration.
Type: ADME
Conditions: ip

O=C(NC1=CC(=O)[C@]2(CO)O[C@@H]2C1=O)c1ccccc1O
LD50: 50 mg/kg
